From patent US20230149420A1, “ANTI-INFLAMMATORY IMMUNOENHANCER” (SCENT SCIENCE INTERNATIONAL INC., priority 2020, published 2023)

Key:
Assay type in all cases: in vivo, C57/BL6 mice
Conditions in all cases: 200 μl of 1% solution i.p., blood 16 hr later, vs saline
[1] = tested on: monocytes in the whole blood cells; experiment: ratio of monocytes in whole blood cells, Siemens Advia 120 (Examples 10, 11)
Description: About 3-month-old C57/BL6 mice were intraperitoneally injected with 200 μl of saline (control) or 1% solution of respective compounds (dissolved in saline). Blood was collected 16 hr later, and the ratio of monocytes in the whole blood cells was measured using Siemens Advia 120.
About 3-month-old C57/BL6 mice were intraperitoneally injected with 200 μl of saline (control) or 1% allyl isothiocyanate solution (dissolved in saline). Blood was collected 16 hr later, and the ratio of monocytes in the whole blood cells was measured using Siemens Advia 120.

[2] = tested on: neutrophils in the whole blood cells; experiment: ratio of neutrophils in whole blood cells, Siemens Advia 120 (Examples 12, 13)
Description: About 3-month-old C57/BL6 mice were intraperitoneally injected with 200 μl of saline (control) or 1% solution of respective compounds (dissolved in saline). Blood was collected 16 hr later, and the ratio of neutrophils in the whole blood cells was measured using Siemens Advia 120.

[3] = tested on: neutrophils in the peripheral blood; experiment: number of neutrophils in peripheral blood, Siemens Advia 120 (Examples 4, 5)
Description: About 3-month-old C57/BL6 mice were intraperitoneally injected with 200 μl of saline (control) or 1% solution of respective compounds (dissolved in saline). Blood was collected 16 hr later, and the number of neutrophils in the peripheral blood was measured using Siemens Advia 120.

[4] = tested on: basophils in the whole blood cells; experiment: ratio of basophils in whole blood cells, Siemens Advia 120 (Example 14)
Description: About 3-month-old C57/BL6 mice were intraperitoneally injected with 200 μl of saline (control) or 1% solution of respective compounds (dissolved in saline). Blood was collected 16 hr later, and the ratio of basophils in the whole blood cells was measured using Siemens Advia 120.

[5] = tested on: basophils in the peripheral blood; experiment: number of basophils in peripheral blood, Siemens Advia 120 (Example 8)
Description: About 3-month-old C57/BL6 mice were intraperitoneally injected with 200 μl of saline (control) or 1% solution of respective compounds (dissolved in saline). Blood was collected 16 hr later, and the number of basophils in the peripheral blood was measured using Siemens Advia 120.

[6] = tested on: monocytes in the peripheral blood; experiment: number of monocytes in peripheral blood, Siemens Advia 120 (Examples 6, 7)
Description: About 3-month-old C57/BL6 mice were intraperitoneally injected with 200 μl of saline (control) or 1% solution of respective compounds (dissolved in saline). Blood was collected 16 hr later, and the number of monocytes in the peripheral blood was measured using Siemens Advia 120.
About 3-month-old C57/BL6 mice were intraperitoneally injected with 200 μl of saline (control) or 1% allyl isothiocyanate solution (dissolved in saline). Blood was collected 16 hr later, and the number of monocytes in the peripheral blood was measured using Siemens Advia 120.

Compound: Cc1ncsc1C [4,5-Dimethylthiazole]
- ratio of monocytes in the whole blood cells [1]: increases
- ratio of neutrophils in the whole blood cells [2]: increases
- neutrophils in the peripheral blood (number) [3]: increase

Compound: CSC1=NCCS1 [2-(Methylthio)-2-thiazoline]
- ratio of neutrophils in the whole blood cells [2]: increases
- neutrophils in the peripheral blood (number) [3]: increase

Compound: CC(=O)c1sc(C)nc1C [5-Acetyl-2,4-dimethylthiazole]
- ratio of neutrophils in the whole blood cells [2]: increases
- ratio of basophils in the whole blood cells [4]: increases
- neutrophils in the peripheral blood (number) [3]: increase

Compound: CCc1nccnc1CC [2,3-Diethylpyrazine]
- ratio of neutrophils in the whole blood cells [2]: increases
- neutrophils in the peripheral blood (number) [3]: increase

Compound: C1CCCNCC1 [Azepane]
- ratio of monocytes in the whole blood cells [1]: increases
- ratio of neutrophils in the whole blood cells [2]: increases
- neutrophils in the peripheral blood (number) [3]: increase

Compound: C=C(C)CN=C=S [Methallyl isothiocyanate]
- ratio of neutrophils in the whole blood cells [2]: increases
- neutrophils in the peripheral blood (number) [3]: increase

Compound: CSc1nc2ccccc2s1 [2-(Methylthio)benzothiazole]
- ratio of neutrophils in the whole blood cells [2]: increases
- neutrophils in the peripheral blood (number) [3]: increase

Compound: CCC(=O)c1cccs1 [2-Propionyl thiophene]
- ratio of neutrophils in the whole blood cells [2]: increases

Compound: S=C=NCc1ccccc1 [Benzyl isothiocyanate]
- ratio of neutrophils in the whole blood cells [2]: increases
- neutrophils in the peripheral blood (number) [3]: increase

Compound: Cc1cccs1 [2-Methylthiophene]
- ratio of neutrophils in the whole blood cells [2]: increases

Compound: Cc1ccc(C)o1 [2,5-Dimethylfuran]
- number of basophils in the peripheral blood [5]: increases

Compound: Cc1cc[nH]c1 [3-Methylpyrrole]
- ratio of neutrophils in the whole blood cells [2]: increases

Compound: CCCCCCc1cccs1 [2-Hexylthiophene]
- ratio of neutrophils in the whole blood cells [2]: increases
- neutrophils in the peripheral blood (number) [3]: increase

Compound: C1CSCCN1 [Thiomorpholine]
- ratio of monocytes in the whole blood cells [1]: increases

Compound: CC1=NC(CC(C)C)SC1C (centres unmarked) [2-Isobutyl-4,5-dimethyl-3-thiazoline]
- neutrophils in the peripheral blood (number) [3]: increase

Compound: c1cscn1 [Thiazole]
- ratio of neutrophils in the whole blood cells [2]: increases

Compound: Cc1ccco1 [2-Methylfuran]
- ratio of basophils in the whole blood cells [4]: increases
- number of basophils in the peripheral blood [5]: increases

Compound: CSCCCN=C=S [3-(Methylthio)propyl isothiocyanate]
- neutrophils in the peripheral blood (number) [3]: increase

Compound: Clc1nccs1 [2-Chlorothiazole]
- ratio of neutrophils in the whole blood cells [2]: increases
- ratio of basophils in the whole blood cells [4]: increases

Compound: C=CCCCN=C=S [4-Pentenyl Isothiocyanate]
- ratio of neutrophils in the whole blood cells [2]: increases
- neutrophils in the peripheral blood (number) [3]: increase

Compound: CC(C)Cc1nccs1 [2-Isobutylthiazole]
- ratio of neutrophils in the whole blood cells [2]: increases

Compound: CSC1CSC=N1 (centres unmarked) [4-(Methylthio)-2-thiazoline]
- ratio of monocytes in the whole blood cells [1]: increases
- ratio of neutrophils in the whole blood cells [2]: increases
- neutrophils in the peripheral blood (number) [3]: increase

Compound: CC(C)N=C=S [Isopropyl isothiocyanate]
- neutrophils in the peripheral blood (number) [3]: increase

Compound: Cc1nccnc1SCc1ccco1 [2-Furfurylthio-3-methylpyrazine]
- ratio of monocytes in the whole blood cells [1]: increases
- ratio of neutrophils in the whole blood cells [2]: increases
- number of monocytes in the peripheral blood [6]: increase
- neutrophils in the peripheral blood (number) [3]: increase

Compound: CC(=O)c1nccs1 [2-Acetylthiazole]
- ratio of neutrophils in the whole blood cells [2]: increases
- ratio of basophils in the whole blood cells [4]: increases

Compound: Cc1nccs1 [2-Methylthiazole]
- ratio of neutrophils in the whole blood cells [2]: increases
- ratio of basophils in the whole blood cells [4]: increases

Compound: Cc1cccc(C)n1 [2,6-Lutidine]
- ratio of basophils in the whole blood cells [4]: increases
- number of basophils in the peripheral blood [5]: increases

Compound: CC(=O)c1cc(C)sc1C [3-Acetyl-2,5-dimethylthiophene]
- ratio of monocytes in the whole blood cells [1]: increases
- ratio of neutrophils in the whole blood cells [2]: increases
- ratio of basophils in the whole blood cells [4]: increases
- neutrophils in the peripheral blood (number) [3]: increase

Compound: CCc1ccco1 [2-Ethylfuran]
- ratio of basophils in the whole blood cells [4]: increases

Compound: CC(=O)c1cc(C)oc1C [3-Acetyl-2,5-dimethylfuran]
- ratio of basophils in the whole blood cells [4]: increases

Compound: SC1=NCCS1 [2-Mercaptothiazoline]
- ratio of monocytes in the whole blood cells [1]: increases
- ratio of neutrophils in the whole blood cells [2]: increases
- ratio of basophils in the whole blood cells [4]: increases
- number of monocytes in the peripheral blood [6]: increase
- neutrophils in the peripheral blood (number) [3]: increase

Compound: CCc1cccs1 [2-Ethylthiophene]
- neutrophils in the peripheral blood (number) [3]: increase

Compound: Cc1nc(C(C)(C)C)cs1 [4-tert-Butyl-2-methylthiazole]
- neutrophils in the peripheral blood (number) [3]: increase

Compound: O=C1CSc2ccccc2N1 [2H-1,4-benzothiazin-3(4H)one]
- ratio of neutrophils in the whole blood cells [2]: increases
- neutrophils in the peripheral blood (number) [3]: increase

Compound: CC(=O)c1ccncc1 [4-Acetylpyridine]
- ratio of monocytes in the whole blood cells [1]: increases
- ratio of neutrophils in the whole blood cells [2]: increases
- number of monocytes in the peripheral blood [6]: increase
- neutrophils in the peripheral blood (number) [3]: increase

Compound: Cc1csc(C(C)C)n1 [2-Isopropyl-4-methylthiazole]
- ratio of neutrophils in the whole blood cells [2]: increases
- ratio of basophils in the whole blood cells [4]: increases

Compound: O=C1CSC(=O)N1 [Thiazolidine-2,4-dione]
- neutrophils in the peripheral blood (number) [3]: increase

Compound: CC1NCCSC1C (centres unmarked) [2,3-Dimethylthiomorpholine]
- ratio of monocytes in the whole blood cells [1]: increases

Compound: CC1(C)NCCS1 [2,2-Dimethylthiazolidine]
- ratio of neutrophils in the whole blood cells [2]: increases
- ratio of basophils in the whole blood cells [4]: increases

Compound: C=CCSC1=NCCS1 [2-(Allylthio)-2-thiazoline]
- ratio of monocytes in the whole blood cells [1]: increases
- number of monocytes in the peripheral blood [6]: increase

Compound: CCc1nccnc1C(C)=O [2-Acetyl-3-ethylpyrazine]
- ratio of monocytes in the whole blood cells [1]: increases
- ratio of neutrophils in the whole blood cells [2]: increases
- ratio of basophils in the whole blood cells [4]: increases

Compound: c1coc(Cn2cccc2)c1 [1-Furfurylpyrrole]
- ratio of neutrophils in the whole blood cells [2]: increases

Compound: Cc1ccsc1 [3-Methylthiophene]
- ratio of basophils in the whole blood cells [4]: increases

Compound: Clc1ccsc1 [3-Chlorothiophene]
- ratio of monocytes in the whole blood cells [1]: increases
- ratio of neutrophils in the whole blood cells [2]: increases
- ratio of basophils in the whole blood cells [4]: increases
- neutrophils in the peripheral blood (number) [3]: increase

Compound: CC1CNCCS1 (centres unmarked) [2-Methylthiomorpholine]
- ratio of neutrophils in the whole blood cells [2]: increases
- neutrophils in the peripheral blood (number) [3]: increase

Compound: CCc1ccc[nH]1 [2-Ethylpyrrole]
- ratio of neutrophils in the whole blood cells [2]: increases
- ratio of basophils in the whole blood cells [4]: increases

Compound: CC(=O)c1cccnc1 [3-Acetylpyridine]
- ratio of neutrophils in the whole blood cells [2]: increases
- neutrophils in the peripheral blood (number) [3]: increase

Compound: Cc1cc2ccccc2[nH]1 [2-Methylindole]
- ratio of monocytes in the whole blood cells [1]: increases

Compound: c1ccc2sccc2c1 [Benzothiophene]
- ratio of neutrophils in the whole blood cells [2]: increases
- neutrophils in the peripheral blood (number) [3]: increase

Compound: CCOc1nccs1 [2-Ethoxythiazole]
- ratio of monocytes in the whole blood cells [1]: increases
- ratio of neutrophils in the whole blood cells [2]: increases
- neutrophils in the peripheral blood (number) [3]: increase

Compound: Cc1c[nH]c(C)c1 [2,4-Dimethylpyrrole]
- ratio of neutrophils in the whole blood cells [2]: increases

Compound: CC(=O)c1ccc[nH]1 [2-Acetylpyrrole]
- ratio of neutrophils in the whole blood cells [2]: increases
- neutrophils in the peripheral blood (number) [3]: increase

Compound: C=CCN=C=S [Allyl isothiocyanate]
- ratio of monocytes in the whole blood cells [1]: increases
- ratio of neutrophils in the whole blood cells [2]: increases
- number of monocytes in the peripheral blood [6]: increases
- neutrophils in the peripheral blood (number) [3]: increase

Compound: CC(=O)c1cccn1C [2-Acetyl-1-methylpyrrole]
- ratio of neutrophils in the whole blood cells [2]: increases
- neutrophils in the peripheral blood (number) [3]: increase

Compound: Cc1nc(C)c(C)s1 [2,4,5-Trimethylthiazole]
- ratio of neutrophils in the whole blood cells [2]: increases

Compound: 2-Methyl-(3 or 5 or 6)-methylthio pyrazine [2-Methyl-(3 or 5 or 6)-methylthio pyrazine (mixture of isomers)]
- ratio of monocytes in the whole blood cells [1]: increases
- ratio of neutrophils in the whole blood cells [2]: increases
